One block for each molecule: values may come before it.
Assay: Measurement of dichroic ratios of coated films by polarized absorbance spectra
Type: physicochemical
Method: Gardner Co. Inc.) at a linear velocity of 25 mm/s. The resulting film thickness was approximately 0.2 μm. The process was conducted at room temperature (˜20° C.) and relative humidity of 65% after the film was dried under the same condition. […] The dichroic ratio […] was equal to about 23 at about 500 nm. […] Gardner Co. Inc.) at a linear velocity of 25 mm/s. The resulting film thickness was approximately 200 nm. The process was conducted at room temperature (˜20° C.) and relative humidity of 65% after the film was dried under the same condition. The film was characterized by absorbance spectra measured on a spectrophotometer in a wavelength range from 380 to 780 nm using a light beam polarized along the direction of the film application (Apar) and the direction perpendicular to that (Aper).

Structure (SMILES): O=C(NCCOCCS(=O)(=O)O)c1ccc2c(c1)nc1c3ccc4c5ccc6c7c(ccc(c8ccc(c(=O)n21)c3c84)c57)c(=O)n1c2cc(C(=O)NCCOCCS(=O)(=O)O)ccc2nc61 [Compound 2]
- dichroic ratio (Kd) (Sample 2: 8 wt % solution titrated with LiOH to pH 7, film approx. 0.2, at about 500 nm): about 11

Structure (SMILES): O=C(NCCOCCOCCCS(=O)(=O)O)c1ccc2c(c1)nc1c3ccc4c5ccc6c7c(ccc(c8ccc(c(=O)n21)c3c84)c57)c(=O)n1c2cc(C(=O)NCCOCCOCCCS(=O)(=O)O)ccc2nc61 [Compound 1]
- dichroic ratio Kd=log(Apar)/log(Aper) (Sample 1: 12 wt % solution titrated with triethylamine to pH 7, film approx. 0.2 μm, at about 500 nm): about 23
- λmax (Table 1, LLC chromophores): 500 nm
- Dichroic ratio (Table 1, at λmax): 23

- dichroic ratio (Kd) (Sample 11: 25 wt % solution in water, film approx. 200 nm, at about 470 nm): about 4
Structure (SMILES): O=C(NCCN1CCCC1)c1ccc2nc3c4ccc5c(=O)n6c7cc(C(=O)NCCN8CCCC8)ccc7nc6c6ccc(c(=O)n3c2c1)c4c56 [Compound 17d]

Structure (SMILES): O=C(NCCN(CCCS(=O)(=O)O)CCCS(=O)(=O)O)c1ccc2c(c1)nc1c3ccc4c5ccc6c7c(ccc(c8ccc(c(=O)n21)c3c84)c57)c(=O)n1c2cc(C(=O)NCCN(CCCS(=O)(=O)O)CCCS(=O)(=O)O)ccc2nc61 [Compound 3]
- dichroic ratio (Kd) (Sample 3: 15 wt % solution titrated with LiOH to pH 7, film approx. 0.2 μm, at about 500 nm): about 17

Structure (SMILES): O=C(NCCS(=O)(=O)[O-])c1ccc2nc3c4ccc5c(=O)n6c7cc(C(=O)NCCS(=O)(=O)[O-])ccc7nc6c6ccc(c(=O)n3c2c1)c4c56.[K+].[K+] [Compound 7]
- dichroic ratio (Kd) (Sample 6: 8 wt % solution titrated with KOH to pH 7, film approx. 0.2, at about 450 nm): about 8

Structure (SMILES): O=C(NCCCS(=O)(=O)[O-])c1ccc2nc3n(c2c1)Cc1ccc2c4c1c-3ccc4c(=O)n1c3cc(C(=O)NCCCS(=O)(=O)[O-])ccc3nc21.[Li+].[Li+] [Compound 8]
- dichroic ratio (Kd) (Sample 7: 8 wt % solution titrated with LiOH to pH 7, film approx. 0.2 μm, at about 450 nm): about 10
